AC50 data for 8 molecules are collected here from PubChem BioAssay AID624132 (Broad Institute, 2012).

Records with an inconclusive call do not appear. A value given as a limit tells only on which side of the number the result lay.

Broadly, the AC50 is the midpoint of the concentration-response curve, whichever way the signal moves.

This experiment has as its system Clone20 osteoblast Shn3 3'UTR firefly luciferase, 24 h. The experiment in a line: reduction of Shn3 3'UTR-driven luciferase in osteoblasts – cell-based, Clone20 osteoblasts, firefly luciferase, cherry-picked, dose response (AID 624132).
For the molecule `CC1=CC2OC3CC4OC(=O)C=CC=CC(C(C)O)OCC(O)C(C)CC(=O)OCC2(CC1O)C4(C)C31CO1` (stereo not drawn), the concentration at half-maximal activity (AC50) is less than 260 nM.
The value for `CC(=O)OC[C@]12CCC(C)=C[C@H]1O[C@@H]1[C@H](O)[C@@H](OC(C)=O)[C@@]2(C)[C@]12CO2` was less than 260 nM.
To `CC(=O)OC1CC2OC3C=C(C)CCC3(C)C1(C)C21CO1` (stereo not drawn) belongs 829 nM; to `CC(=O)OCC12CC(OC(=O)CC(C)C)C(C)=CC1OC1C(O)C(OC(C)=O)C2(C)C12CO2` (stereo not drawn), less than 260 nM.
The value for `CC1=CC2OC3CC4OC(=O)C=CC=CC(C(C)O)OCC(O)C5(C)OC5C(=O)OCC2(CC1O)C4(C)C31CO1` (stereo not drawn) was less than 260 nM; that for `CC(=O)OC1C(=O)OCC23CCC4(C)OC4C2OC2CC(OC(=O)C=CC=CC(=O)OCCC1C)C3(C)C21CO1` (stereo not drawn) was less than 260 nM.
`C[C@H]1[C@@H](OS(=O)(=O)O)C[C@@H]2C[C@H]([C@@H](O)c3cc(=O)[nH]c(=O)[nH]3)NC3=NC[C@H]1N32`: the concentration at half-maximal activity (AC50) is 1320 nM.
The value for `CC1=CC2OC3CC4OC(=O)C=CC=CC(=O)OCCC(C)C(O)C(=O)OCC2(CC1O)C4(C)C31CO1` (stereo not drawn) was less than 260 nM.
